By IC50 is commonly meant the concentration that inhibits the measured activity by half. Lower therefore signals greater potency in that assay.

One experiment concerns mouse myoblasts (C2C12). The experiment can be described thus: Atrophy of mouse myoblasts (C2C12) induced by C26 cell supernatant, myotube diameter by HE staining. Format: cell-based. The conditions noted are these: 48 hours treatment, C26 supernatant-induced C2C12 myotubes. As to the method:
C2C12 cells were inoculated in 24-well plates. The culture system was high-glucose DMEM medium containing 10% FBS with 1% penicillin-streptomycin. The plates were placed in a 5% CO2, 37° C. environment. When the cell growth density reached 50%-60%, the culture system was replaced with high-glucose DMEM culture medium containing 2% HS with 1% penicillin-streptomycin. Fresh 2% HS differentiation medium was replaced every 48 hours, and the cells were differentiated into mature cells on the 5th or 6th day. Additionally, C26 cells were inoculated in T75 flasks. The culture system was high-glucose DMEM medium containing 10% FBS with 1% penicillin-streptomycin. The flasks were placed in a 5% CO2, 37° C. environment. When subculturing, the cells were subcultured at 6 million cells/flask. After culturing in 20 ml of culture medium for 48 hours, the supernatant was collected and centrifuged at 1000 rpm for 3 mins. The supernatant was collected and centrifuged at 4000 rpm for 10 mins to obtain the C26 supernatant. The C26 supernatant and 2% HS differentiation solution were mixed at a ratio of 1:1 (volume ratio) as the muscle atrophy induction solution. Except for the control group in which 2% HS differentiation solution was added, for the other groups, an equivalent amount of muscular atrophy induction solution was added. One group was used as the model group, and the other groups were used as the treatment and experimental groups.
The diameter of myotubes after differentiation of mouse myoblasts (C2C12) was evaluated by using the diameter measurement method. The method for measuring the diameter of myotubes was as follows: after 48 hours of treatment, the myotubes were fixed with a fixative (anhydrous ethanol: formaldehyde: glacial acetic acid (volume ratio)=20:2:1) for more than 1 h and stained. The staining method used in the experiment is hematoxylin-eosin staining, referred to as HE staining for short. Hematoxylin stain is alkaline and positively charged, and it can easily bind to the negatively charged and acidic deoxyribonucleic acid (DNA) in the cell nucleus through ionic bonds to stain it blue; eosin is an acidic dye that dissociates into negatively charged anions in water, and it can easily bind to the positively charged amino groups of proteins in the cytoplasm to stain it red. The stained cells were placed under a high-power microscope to take pictures (magnification: 200 times), and the diameter of myotube cells was statistically analyzed using image J software. The muscle atrophy reversal rate was calculated according to the following formula: Muscle atrophy reversal rate=(average value of myotubes in the treatment group-average value of myotubes in the model group)/(average value of myotubes in the control group-average value of myotubes in the model group)×100%

The target in a further experiment is ActRIIB (Homo sapiens, UniProt Q13705). The experiment can be described thus: ActRIIB inhibitory activity, ADP-Glo assay kit. Format: biochemical. To be noted: ATP 25 μM, substrate 0.1 mg/mL, ActRIIB 20.0 ng/μL. The method, then: The ATP and substrate concentrations recommended by the ADP-Glo™ assay kit were used, which were 25 μM and 0.1 mg/mL, respectively, and a series of isocratic final ActRIIB concentrations were set up, which were 0, 0.47, 0.94, 1.88, 3.75, 7.5, 15, 30, and 60 ng/μL, respectively. According to the […] values obtained in the experiment, an ActRIIB concentration titration curve was drawn. The ActRIIB concentrations corresponding to the ratio of the signal value to the background value (i.e., signal-to-background ratio, SBR) in the range of 5-10 times are suitable for screening compounds for inhibition of ActRIIB activity. From the ActRIIB concentration titration curve, the final ActRIIB concentrations corresponding to SB5 and SB10 were calculated to be 14.9 and 23.7 ng/μL, respectively. Finally, a final concentration of 20.0 ng/μL was selected as the experimental concentration for screening compounds for their inhibitory activity against ActRIIB. The inhibitory efficiency of 7-azaindole compounds on ActRIIB was detected at concentrations of 0.1, 1, 10, and 100 nM, respectively.
Chain of ActRIIB (Q13705 19-512): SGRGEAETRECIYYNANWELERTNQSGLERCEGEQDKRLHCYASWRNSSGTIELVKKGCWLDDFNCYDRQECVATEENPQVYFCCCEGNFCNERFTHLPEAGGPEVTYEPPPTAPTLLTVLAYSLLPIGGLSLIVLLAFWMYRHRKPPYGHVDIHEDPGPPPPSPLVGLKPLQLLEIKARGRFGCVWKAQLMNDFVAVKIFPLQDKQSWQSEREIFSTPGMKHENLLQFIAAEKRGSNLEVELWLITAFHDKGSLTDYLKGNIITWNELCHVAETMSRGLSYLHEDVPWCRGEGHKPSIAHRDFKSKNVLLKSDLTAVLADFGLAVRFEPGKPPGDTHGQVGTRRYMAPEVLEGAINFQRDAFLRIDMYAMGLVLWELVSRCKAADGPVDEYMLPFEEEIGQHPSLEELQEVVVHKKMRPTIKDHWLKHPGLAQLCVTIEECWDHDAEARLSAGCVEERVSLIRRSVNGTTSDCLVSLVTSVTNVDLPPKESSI
Background: In ADP-Glo the light output rises with the ADP produced.

Where [1] appears, read: Mus musculus, read-out: Myotube atrophy reversal rate.

Take `CN1CCN(c2ccc(-c3cnc4[nH]cc(-c5ccccc5)c4c3)cc2)CC1` [Compound 25, 5-[4-(4-methylpiperazin-1-yl)phenyl]-3-phenyl-1H-pyrrolo[2,3-b]pyridine]: the inhibition at 5 µM in the experiment on mouse myoblasts (C2C12) (setting [1]) was determined as 77.1%. Besides, half-maximal inhibition on ActRIIB (IC50) required 1.2 nM.
Turning to `CC(C)n1nccc1-c1c[nH]c2ncc(-c3ccc(N4CCN(C)CC4)cc3)cc12` [Compound 8, 5-[4-(4-methylpiperazin-1-yl)phenyl]-3-[2-(prop-2-yl)pyrazol-3-yl]-1H-pyrrolo[2,3-b]pyridine], the inhibition at 5 µM in the experiment with mouse myoblasts (C2C12) (setting [1]) came out at 62.2%. Further, half-maximal inhibition at ActRIIB (IC50) required 2.6 nM.
Turning to `CN1CCN(c2ccc(-c3cnc4[nH]cc(-c5ccncc5)c4c3)cc2)CC1` [Compound 24, 5-[4-(4-methylpiperazin-1-yl)phenyl]-3-(pyridin-4-yl)-1H-pyrrolo[2,3-b]pyridine], in the experiment on mouse myoblasts (C2C12) (setting [1]), the inhibition at 5 µM turned out to be 76.7%. At ActRIIB, this compound had a half-inhibitory concentration (IC50) of 59.3 nM.
The matching figures for `CN1CCN(c2ccc(-c3cnc4[nH]cc(-c5cccnc5)c4c3)cc2)CC1` [Compound 22, 5-[4-(4-methylpiperazin-1-yl)phenyl]-3-(pyridin-3-yl)-1H-pyrrolo[2,3-b]pyridine]: 75.4% and 87.3 nM.
Consider `Cn1nccc1-c1c[nH]c2ncc(-c3ccc(N4CCNCC4)cc3)cc12` [Compound 17, 3-(2-methylpyrazol-3-yl)-5-[4-(piperazin-1-yl)phenyl]-1H-pyrrolo[2,3-b]pyridine], for which the inhibition at 1.25 µM with mouse myoblasts (C2C12) (Mus musculus, 1.25 μM, read-out: Myotube atrophy reversal rate) worked out at 39.9%. Also, in the experiment on mouse myoblasts (C2C12) (setting [1]), the inhibition at 2.5 µM was found to be 65% and the inhibition at 5 µM amounted to 97.7%. This compound gave an IC50 against ActRIIB of 3.61 nM.
Turning to `CCN(CC)CCOc1ccc(-c2cnc3[nH]cc(-c4ccnn4C)c3c2)cc1` [Compound 18, 5-(4-{[2-(diethylamino)ethyl]oxy}phenyl)-3-(2-methylpyrazol-3-yl)-1H-pyrrolo[2,3-b]pyridine], in the experiment on mouse myoblasts (C2C12) (setting [1]), the inhibition at 10 µM came out at 84.5%. For the same compound, the IC50 on ActRIIB came out at 78.9 nM.
The matching figures for `Cn1nccc1-c1c[nH]c2ncc(-c3ccc(OCCN4CCCCC4)cc3)cc12` [Compound 13, 5-(4-{[2-(hexahydropyridin-1-yl)ethyl]oxy}phenyl)-3-(2-methylpyrazol-3-yl)-1H-pyrrolo[2,3-b]pyridine]: 86.2% and 12.6 nM.
For the compound `Cc1n[nH]c(C)c1-c1c[nH]c2ncc(-c3ccc(N4CCN(C)CC4)cc3)cc12` [Compound 5, 3-(3,5-dimethyl-1H-pyrazol-4-yl)-5-[4-(4-methylpiperazin-1-yl)phenyl]-1H-pyrrolo[2,3-b]pyridine], the inhibition at 5 µM in the experiment with mouse myoblasts (C2C12) (setting [1]) is 79.5%. The same compound returned a concentration for half-maximal inhibition (IC50) on ActRIIB of 1.2 nM.
As to `CN1CCN(c2ccc(-c3cnc4[nH]cc(-c5cn[nH]c5)c4c3)cc2)CC1` [Compound 1, 3-(1H-pyrazol-4-yl)-5-[4-(4-methylpiperazin-1-yl)phenyl]-1H-pyrrolo[2,3-b]pyridine], the inhibition at 2.5 µM in the experiment with mouse myoblasts (C2C12) (setting [1]) amounted to 63.5%. The same compound gave an IC50 against ActRIIB of 20.4 nM.
Take `CN1CCN(c2ccc(-c3cnc4[nH]cc(-c5ccnn5C)c4c3)cc2)CC1` [Compound 6, 5-[4-(4-methylpiperazin-1-yl)phenyl]-3-(2-methylpyrazol-3-yl)-1H-pyrrolo[2,3-b]pyridine]: in the experiment with mouse myoblasts (C2C12) (setting [1]), the inhibition at 2.5 µM came to 45.9%, the inhibition at 5 µM was found to be 79.1% and the inhibition at 10 µM is 99.8%. Besides, on ActRIIB, the IC50 stood at 1.4 nM.
As to `CN1CCN(C(=O)c2ccc(-c3cnc4[nH]cc(-c5ccnn5C)c4c3)cc2)CC1` [Compound 14, (4-methylpiperazin-1-yl) {4-[3-(2-methylpyrazol-3-yl)-1H-pyrrolo[2,3-b]pyridin-5-yl]phenyl}ketone], the inhibition at 10 µM with mouse myoblasts (C2C12) (setting [1]) came out at 57%.
As to `Cn1nccc1-c1c[nH]c2ncc(-c3ccc(N4CCOCC4)cc3)cc12` [Compound 16, 3-(2-methylpyrazol-3-yl)-5-[4-(1,4-oxazacyclohexan-4-yl)phenyl]-1H-pyrrolo[2,3-b]pyridine], the inhibition at 5 µM in the experiment with mouse myoblasts (C2C12) (setting [1]) was determined as 78%. This compound gave an IC50 on ActRIIB of 1.86 nM.
On to `CN1CCN(Cc2ccc(-c3cnc4[nH]cc(-c5ccnn5C)c4c3)cc2)CC1` [Compound 15, 5-{4-[(4-methylpiperazin-1-yl)methyl]phenyl}-3-(2-methylpyrazol-3-yl)-1H-pyrrolo[2,3-b]pyridine], for which, in the experiment with mouse myoblasts (C2C12) (setting [1]), the inhibition at 2.5 µM worked out at 47.5%, the inhibition at 5 µM came out at 99.1% and the inhibition at 10 µM was 109%.
On to `CCn1nccc1-c1c[nH]c2ncc(-c3ccc(N4CCN(C)CC4)cc3)cc12` [Compound 7, 3-(2-ethylpyrazol-3-yl)-5-[4-(4-methylpiperazin-1-yl)phenyl]-1H-pyrrolo[2,3-b]pyridine], for which, in the experiment on mouse myoblasts (C2C12) (setting [1]), the inhibition at 10 µM is 77.1%. Also, the IC50 against ActRIIB is 4.4 nM.
`CN1CCN(c2ccc(-c3cnc4[nH]cc(-c5cnn(C)c5)c4c3)cc2)CC1` [Compound 9, 5-[4-(4-methylpiperazin-1-yl)phenyl]-3-(1-methylpyrazol-4-yl)-1H-pyrrolo[2,3-b]pyridine]: the inhibition at 2.5 µM in the experiment on mouse myoblasts (C2C12) (setting [1]) amounted to 61.1%. This compound came in with an IC50 at ActRIIB of 70.8 nM.
`Cn1nccc1-c1c[nH]c2ncc(-c3ccc(OCCN4CCOCC4)cc3)cc12` [Compound 12, 3-(2-methylpyrazol-3-yl)-5-(4-{[2-(1,4-oxazacyclohexan-4-yl)ethyl]oxy}phenyl)-1H-pyrrolo[2,3-b]pyridine]: in the experiment on mouse myoblasts (C2C12) (setting [1]), the inhibition at 5 µM worked out at 73.8%.
As to `CN1CCN(c2ccc(-c3cnc4[nH]cc(-c5cncnc5)c4c3)cc2)CC1` [Compound 23, 5-[4-(4-methylpiperazin-1-yl)phenyl]-3-(pyrimidin-5-yl)-1H-pyrrolo[2,3-b]pyridine], in the experiment on mouse myoblasts (C2C12) (setting [1]), the inhibition at 5 µM is 97.9%. In addition, the IC50 at ActRIIB was found to be 4.8 nM.
The matching figures for `Cc1noc(C)c1-c1c[nH]c2ncc(-c3ccc(N4CCN(C)CC4)cc3)cc12` [Compound 19, 3-(3,5-dimethylisoxazol-4-yl)-5-[4-(4-methylpiperazin-1-yl)phenyl]-1H-pyrrolo[2,3-b]pyridine]: 69.4% and 24.2 nM.
Consider `c1cc(-c2c[nH]c3ncc(-c4ccc(OCCN5CCOCC5)cc4)cc23)n[nH]1` [Compound 20, 3-(1H-pyrazol-3-yl)-5-(4-[[2-(1,4-oxazacyclohexan-4-yl)ethyl]oxy]phenyl)-1H-pyrrolo[2,3-b]pyridine], for which, in the experiment on mouse myoblasts (C2C12) (1.25 μM), the “Myotube atrophy reversal rate” value stood at 54.04%.
In the case of `Cc1n[nH]cc1-c1c[nH]c2ncc(-c3ccc(N4CCN(C)CC4)cc3)cc12` [Compound 4, 3-(3-methyl-1H-pyrazol-4-yl)-5-[4-(4-methylpiperazin-1-yl)phenyl]-1H-pyrrolo[2,3-b]pyridine], the inhibition at 5 µM with mouse myoblasts (C2C12) (setting [1]) came to 63.6%. Further, it took 58.6 nM to reach half-maximal inhibition at ActRIIB (IC50).

Source of the values: patent US20260193255A1, “7-AZAINDOLE COMPOUNDS, PREPARATION METHOD THEREFOR, AND USE THEREOF” (Fudan University, priority 2022, published 2026).
